Converted amounts (≈) assume the structure as drawn.
Key:
[1] = system: Enterococcus faecalis; assay: Antimicrobial activity against Enterococcus faecalis assessed as bacterial growth at 0.34 ug/ml after 20 hrs by microtiter plate assay; assay type: functional
[2] = system: Enterococcus faecalis; assay: Antimicrobial activity against Enterococcus faecalis assessed as bacterial growth at 1.37 ug/ml after 20 hrs by microtiter plate assay; assay type: functional
[3] = system: Enterococcus faecalis; assay: Antimicrobial activity against Enterococcus faecalis assessed as bacterial growth at 10.9 ug/ml after 20 hrs by microtiter plate assay; assay type: functional
[4] = system: Enterococcus faecalis; assay: Antimicrobial activity against Enterococcus faecalis assessed as bacterial growth at 21.9 ug/ml after 20 hrs by microtiter plate assay; assay type: functional
[5] = system: Enterococcus faecalis; assay: Antimicrobial activity against Enterococcus faecalis assessed as bacterial growth at 2.73 ug/ml after 20 hrs by microtiter plate assay; assay type: functional
[6] = system: Enterococcus faecalis; assay: Antimicrobial activity against Enterococcus faecalis assessed as bacterial growth at 0.17 ug/ml after 20 hrs by microtiter plate assay; assay type: functional
[7] = system: Enterococcus faecalis; assay: Antimicrobial activity against Enterococcus faecalis assessed as bacterial growth at 0.68 ug/ml after 20 hrs by microtiter plate assay; assay type: functional
[8] = system: Enterococcus faecalis; assay: Antimicrobial activity against Enterococcus faecalis assessed as inhibition of biofilm formation after 20 hrs by crystal violet staining analysis; assay type: functional, organism-based
[9] = system: Enterococcus faecalis; assay: Antimicrobial activity against Enterococcus faecalis assessed as bacterial growth at 43.8 ug/ml after 20 hrs by microtiter plate assay; assay type: functional
[10] = system: Enterococcus faecalis; assay: Antimicrobial activity against Enterococcus faecalis assessed as bacterial growth at 5.5 ug/ml after 20 hrs by microtiter plate assay; assay type: functional
[11] = system: Enterococcus faecalis; assay: Antimicrobial activity against Enterococcus faecalis assessed as bacterial growth at 87.5 ug/ml after 20 hrs by microtiter plate assay; assay type: functional

Row | SMILES | Activity [1] [%] | Activity [2] [%] | Activity [3] [%] | Activity [4] [%] | Activity [5] [%] | Activity [6] [%] | Activity [7] [%] | IC50 [8] [µg/mL] | Activity [9] [%] | Activity [10] [%] | Activity [11] [%]
1 | COc1ccc(C)cc1C1=C(Br)C(=O)N(CC(C)C)C1(O)Cc1ccccc1Cl (centres undefined) | -15.6 | 19.1 | 43.8 | 46 | 35.4 | -3.7 | -12.4 | 1.07 (≈ 2.23 µM) | 63.4 | 41.6 | 86.4
2 | COc1ccc(Br)cc1C1=C(Br)C(=O)N(CC(C)C)C1(O)Cc1cccc(Cl)c1 (centres undefined) | -4.7 | 1.3 | 6.5 | 9.3 | -4.4 | 1.3 | -0.8 | > 87.5 | 30.3 | -2.1 | 48.7
3 | COc1ccc(Cl)cc1C1=C(Br)C(=O)N(CC(C)C)/C1=C\c1ccccc1Br | 0 | 45.1 | 53.3 | 61.5 | 44.9 | -4.1 | 19.2 | 1.48 (≈ 2.82 µM) | 70 | 35.1 | 100.8
4 | COc1ccc(C)cc1C1=C(Br)C(=O)O/C1=C\c1cccc(Cl)c1 | -7.9 | 9.1 | 17.7 | 19.4 | 9.8 | -6.4 | -4.7 | 1.51 (≈ 3.72 µM) | 39.6 | 17.4 | 55.8
5 | COc1ccccc1C1=C(Br)C(=O)N(CC(C)C)C1(O)Cc1ccc(C(F)(F)F)cc1 (centres undefined) | 1.7 | 3.4 | 22.7 | -7 | 8.4 | 1.9 | 11.3 | – | -1.2 | 18.1 | -24.6
6 | COc1cccc(/C=C2\C(c3cc(Cl)ccc3OC)=C(Br)C(=O)N2CC(C)C)c1 | -6.4 | -4.8 | 20.8 | 30.1 | 8.1 | -9.4 | -6 | 3.26 (≈ 6.84 µM) | 33.5 | 33.7 | 56.3
7 | COc1ccc(Br)cc1C1=C(Br)C(=O)O/C1=C\c1cccc(Cl)c1 | 0.8 | 14.4 | 18.4 | 34.8 | 16 | 7.2 | 4.8 | 6.91 (≈ 14.7 µM) | 38.8 | 14.9 | 72.1
8 | COc1ccc(C)cc1C1=C(Br)C(=O)O/C1=C\c1ccccc1Cl | 29.9 | 27.1 | 5.1 | 18.2 | 19.9 | 21 | 33.9 | – | 28.8 | 19.1 | 63.8
9 | COc1ccc(C)cc1C1=C(Br)C(=O)N(CC(C)C)/C1=C/c1ccccc1Cl | -1.8 | 15.7 | 36.1 | 46.9 | 27.8 | -1.5 | -1 | 1.04 (≈ 2.26 µM) | 58.8 | 36.6 | 82
10 | COc1cccc(CC2(O)C(c3cc(Cl)ccc3OC)=C(Br)C(=O)N2CC(C)C)c1 (centres undefined) | 1 | 3 | 19.8 | 21.6 | 9.5 | -4 | 4 | > 87.5 | 38.2 | -8 | 60.6
11 | COc1ccc(C)cc1C1=C(Br)C(=O)N(CC(C)C)/C1=C/c1cccc(Cl)c1 | 6.8 | 1.4 | 19.4 | 31.8 | 5 | 0.4 | 1.4 | 59.3 (≈ 129 µM) | 38.4 | 10.5 | 81.4
12 | COc1ccc(Br)cc1C1=C(Br)C(=O)O/C1=C\c1ccc(Br)cc1 | -0.3 | 8.8 | 19.9 | 9.6 | 1.1 | 0.8 | 10.4 | 18.7 (≈ 36.3 µM) | 22.3 | 9.6 | 35.9
13 | COc1ccc(Br)cc1C1=C(Br)C(=O)N(CC(C)C)C1(O)Cc1ccc(Br)cc1 (centres undefined) | 10 | 3.2 | 10.4 | 15.8 | 8.9 | -8 | 6.3 | 33.4 (≈ 56.8 µM) | 28.1 | 8.4 | 42.4
14 | COc1ccc(Cl)cc1C1=C(Br)C(=O)N(CC(C)C)/C1=C/c1ccccc1Br | 7.4 | 19.2 | 42.7 | 32.4 | 33.3 | 0.5 | 9.1 | 0.76 (≈ 1.45 µM) | 43.4 | 43.4 | 60.9
15 | COc1ccc(Br)cc1C1=C(Br)C(=O)N(CC(C)C)/C1=C/c1ccc(Br)cc1 | -4.4 | 15.8 | 10.6 | 18.1 | 20.2 | 0.8 | 1.8 | 3.35 (≈ 5.88 µM) | 22.5 | 9.6 | 57.1
16 | COc1ccccc1C1=C(Br)C(=O)O/C1=C\c1ccc(C(F)(F)F)cc1 | -6.7 | -7.6 | 15.2 | 26 | -4.8 | -4.5 | -9.1 | – | 46.3 | 7.1 | 66.5
17 | COc1ccc(C)cc1C1=C(Br)C(=O)N(CC(C)C)/C1=C\c1cccc(Cl)c1 | 6.9 | 11.9 | 34.4 | 46.8 | 14.5 | 6 | 11.6 | 62.6 (≈ 136 µM) | 61.8 | 31.1 | 64.5
